The record followed here is PMC4631641 (The Journal of nutritional biochemistry, 2015).

Structures are written as SMILES.

This assay addresses T1, holocarboxylase synthetase (HLCS) (Homo sapiens, UniProt P50747).
T1 sequence (P50747 1-726): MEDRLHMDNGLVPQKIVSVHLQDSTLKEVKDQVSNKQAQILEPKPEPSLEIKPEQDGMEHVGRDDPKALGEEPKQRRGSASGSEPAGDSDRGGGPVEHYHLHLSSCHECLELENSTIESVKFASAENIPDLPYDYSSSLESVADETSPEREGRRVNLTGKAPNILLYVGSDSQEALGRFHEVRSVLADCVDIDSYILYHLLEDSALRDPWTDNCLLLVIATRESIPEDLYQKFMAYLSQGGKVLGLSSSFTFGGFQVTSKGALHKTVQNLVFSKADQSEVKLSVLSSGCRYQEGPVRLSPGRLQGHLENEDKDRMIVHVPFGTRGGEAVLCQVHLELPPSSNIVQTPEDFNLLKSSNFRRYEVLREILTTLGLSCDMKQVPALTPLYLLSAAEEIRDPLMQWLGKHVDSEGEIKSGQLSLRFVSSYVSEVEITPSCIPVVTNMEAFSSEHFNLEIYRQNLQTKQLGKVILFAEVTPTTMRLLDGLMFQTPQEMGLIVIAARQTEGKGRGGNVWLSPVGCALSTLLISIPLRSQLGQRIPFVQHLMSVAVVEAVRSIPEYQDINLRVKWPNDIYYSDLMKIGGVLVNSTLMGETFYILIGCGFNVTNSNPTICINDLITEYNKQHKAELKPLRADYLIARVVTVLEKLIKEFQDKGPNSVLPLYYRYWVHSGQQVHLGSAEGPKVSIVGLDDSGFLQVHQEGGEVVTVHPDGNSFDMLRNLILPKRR
The assay is described as follows: gel-based p67 biotinylation assay with purified rHLCS, dose-response. The assay is classed as biochemical.
By IC50 is commonly meant the concentration needed to halve the response being measured. Higher therefore signals a need for much substance. With `OC[C@H]1O[C@@H](Oc2cc(O)cc(/C=C/c3ccc(O)cc3)c2)[C@H](O)[C@@H](O)[C@@H]1O` [Piceid], the IC50 amounted to 21.3 ± 0.014 µM.

In turn, `Oc1ccc(/C=C/c2cc(O)cc(O)c2)cc1` [Resveratrol] yielded an IC50 of 3.7 ± 0.0085 µM. Next, `Oc1cc(O)cc(/C=C/c2ccc(O)c(O)c2)c1` [Piceatannol]: 0.28 µM.
